Laboratory results: patent US4021434A, “Sodium β-[2,6-dimethyl-3,5-bis(ethoxycarbonyl)-4-(3-nitrophenyl)-1,4-dihyd ropyridine-1-yl]ethyl sulfate” (Yamanouchi Pharmaceutical Co., Ltd., priority 1972, dated 1977)

Key:
[1] = Effects on MBP and partial oxygen pressure (PO2) in coronary venous blood, intra-duodenal administration (Experiment 4, Table 4)
Protocol: (§1) Antagonism against hypertensive action of norepinephrine and effects on MBP and partial oxygen pressure (referred to hereinafter as PO2) in coronary venous blood, in case of intra-duodenal administration:
(§2) By using dogs anesthetized by pentobarbital, blood pressure at the femoral artery was measured. […] Antagonism against hypertensive active in case of norepinephrine administration (3g/kg i.v.) was investigated also. Drugs were administered intra-duodenally.

[2] = tested on: partial oxygen pressure in coronary venous blood; assay: as above
Protocol: as §1, §2

[3] = tested on: hypertensive action of norepinephrine; assay: Antagonism against hypertensive action of norepinephrine, intra-duodenal administration (Experiment 4, Table 5); type: in vivo, dogs
Protocol: Drugs were administered intra-duodenally.

[4] = tested on: vertebral blood flow and coronary blood flow; assay: Effects on mean blood pressure, vertebral blood flow and coronary blood flow, intravenous, dogs anesthetized with pentobarbital (Experiment 3, Table 3); type: in vivo
Protocol: Effects on mean blood pressure (hereinafter referred to as MBP), vertebral blood flow (hereinafter referred to as VBF) and coronary blood flow (hereinafter referred to as Cor.BF), when administered intravenously:
By using dogs anesthetized with pentobarbital, VBF and Cor. BF were measured with an electromagnetic flowmeter. Blood pressure at the femoral artery was measured.

cerebral circulation = assay: Effect on cerebral circulation in dogs anesthetized by chloralose-urethane (Experiment 1, Table I); type: in vivo
in vivo = type: in vivo; details: mouse, in vivo, mice
physchem = details: water
mice = assay: in vivo; type: in vivo
[5] = 1 mg/kg i.d., Pre-administration (baseline)
[6] = 1 mg/kg i.d., 1/2 hour post-administration
[7] = 1 mg/kg i.d., 1 hour post-administration
[8] = 1 mg/kg i.d., 2 hour post-administration
[9] = 1 mg/kg i.d., 3 hour post-administration
[10] = 1 mg/kg i.d., 5 hour post-administration
[11] = 1 mg/kg i.d., 8 hour post-administration
[12] = 10 mg/kg i.d., Pre-administration (baseline)
[13] = 10 mg/kg i.d., 1/2 hour post-administration
[14] = 10 mg/kg i.d., 1 hour post-administration
[15] = 10 mg/kg i.d., 2 hour post-administration
[16] = 10 mg/kg i.d., 3 hour post-administration
[17] = 10 mg/kg i.d., 5 hour post-administration
[18] = 10 mg/kg i.d., 8 hour post-administration

CCOC(=O)C1=C(C)NC(C)=C(C(=O)OCC)C1c1cccc([N+](=O)[O-])c1 [B]
water-solubility (in words) (Water-solubility): almost unsoluble in water
MBP [1, 5]: 101
MBP ([1]; 1 mg/kg i.d., change, 1/2 hour post-administration): -39
MBP ([1]; 1 mg/kg i.d., change, 1 hour post-administration): -43
MBP ([1]; 1 mg/kg i.d., change, 2 hour post-administration): -42
MBP ([1]; 1 mg/kg i.d., change, 3 hour post-administration): -32
MBP ([1]; 1 mg/kg i.d., change, 5 hour post-administration): -27
MBP ([1]; 1 mg/kg i.d., change, 8 hour post-administration): -12
PO2 in coronary venous blood [2, 6]: 34.6
PO2 in coronary venous blood [2, 7]: 37.7
PO2 in coronary venous blood [2, 8]: 39.3
PO2 in coronary venous blood [2, 9]: 38.9
PO2 in coronary venous blood [2, 10]: 32.7
PO2 in coronary venous blood [2, 11]: 25.0
PO2 in coronary venous blood [2, 5]: 17.4
Percent inhibition against increase of blood pressure caused by norepinephrin [3, 6]: 79%
Percent inhibition against increase of blood pressure caused by norepinephrin [3, 7]: 78%
Percent inhibition against increase of blood pressure caused by norepinephrin [3, 8]: 79%
Percent inhibition against increase of blood pressure caused by norepinephrin [3, 9]: 77%
Percent inhibition against increase of blood pressure caused by norepinephrin [3, 10]: 63%
Percent inhibition against increase of blood pressure caused by norepinephrin [3, 11]: 48%
Coronary Blood Flow Duration ([4]; 0.001 mg/kg i.v.): 5 min
Coronary Blood Flow Increase ([4]; 0.001 mg/kg i.v.): 58 Δ%
Mean Blood Pressure Decrease ([4]; 0.001 mg/kg i.v.): -15 ΔmmHg
Vertebral Blood Flow Increase ([4]; 0.001 mg/kg i.v.): 20 Δ%
Coronary Blood Flow Duration ([4]; 0.01 mg/kg i.v.): 30 min
Coronary Blood Flow Increase ([4]; 0.01 mg/kg i.v.): 141 Δ%
Mean Blood Pressure Decrease ([4]; 0.01 mg/kg i.v.): -35 ΔmmHg
Vertebral Blood Flow Increase ([4]; 0.01 mg/kg i.v.): 144 Δ%
Carotid blood flow Duration (cerebral circulation; 0.01 mg/Kg i.v.): 30 min
Carotid blood flow Increase (cerebral circulation; 0.01 mg/Kg i.v.): 83%
Mean Blood Pressure Decrease (cerebral circulation; 0.01 mg/Kg i.v.): 29%
Regional Cerebral blood flow Duration (cerebral circulation; 0.01 mg/Kg i.v.): 30 min
Regional Cerebral blood flow Increase (cerebral circulation; 0.01 mg/Kg i.v.): 9.2 μV
Vertebral Blood Flow Increase (cerebral circulation; 0.01 mg/Kg i.v.): 130%
Vertebral blood flow Duration (cerebral circulation; 0.01 mg/Kg i.v.): 30 min
LD50 (in vivo; ip): 525 mg/kg
LD50 (in vivo; po): 5000 mg/kg

CCOC(=O)C1=C(C)N(CC(=O)O)C(C)=C(C(=O)OCC)C1c1cccc([N+](=O)[O-])c1 [sodium α-[3,5-bis(ethoxycarbonyl)-2,6-dimethyl-4-(3'-nitrophenyl)-1,4-dihydro-1-pyridinyl]acetate]
water-solubility (in words) (Water-solubility): easily soluble in water

CCOC(=O)C1=C(C)NC(C)=C(C(=O)OCC)C1c1ccccc1C(F)(F)F [E, 3,5-Dicarboethoxy-1,4-dihydro-2,6-dimethyl-4-(2-trifluoromethylphenyl)pyridine]
Coronary Blood Flow Duration ([4]; 0.001 mg/kg i.v.): 10 min
Mean Blood Pressure Decrease ([4]; 0.001 mg/kg i.v.): -16 ΔmmHg
Vertebral Blood Flow Increase ([4]; 0.001 mg/kg i.v.): 74 Δ%
Coronary Blood Flow Duration ([4]; 0.01 mg/kg i.v.): 45 min
Mean Blood Pressure Decrease ([4]; 0.01 mg/kg i.v.): -44 ΔmmHg
Vertebral Blood Flow Increase ([4]; 0.01 mg/kg i.v.): 144 Δ%

COC(=O)C1=C(C)NC(C)=C(C(=O)OC)C1c1ccccc1[N+](=O)[O-] [C]
Carotid blood flow Duration (cerebral circulation; 0.01 mg/Kg i.v.): 30 min
Carotid blood flow Increase (cerebral circulation; 0.01 mg/Kg i.v.): 90%
Mean Blood Pressure Decrease (cerebral circulation; 0.01 mg/Kg i.v.): 28%
Regional Cerebral blood flow Duration (cerebral circulation; 0.01 mg/Kg i.v.): 30 min
Regional Cerebral blood flow Increase (cerebral circulation; 0.01 mg/Kg i.v.): 8.2 μV
Vertebral Blood Flow Increase (cerebral circulation; 0.01 mg/Kg i.v.): 120%
Vertebral blood flow Duration (cerebral circulation; 0.01 mg/Kg i.v.): 30 min

COc1ccc(Cc2nccc3cc(OC)c(OC)cc23)cc1OC [Papaverine]
Carotid blood flow Duration (cerebral circulation; 1.0 mg/Kg i.v.): 6 min
Carotid blood flow Increase (cerebral circulation; 1.0 mg/Kg i.v.): 120%
Mean Blood Pressure Decrease (cerebral circulation; 1.0 mg/Kg i.v.): 18%
Regional Cerebral blood flow Duration (cerebral circulation; 1.0 mg/Kg i.v.): 7 min
Regional Cerebral blood flow Increase (cerebral circulation; 1.0 mg/Kg i.v.): 8.2 μV
Vertebral Blood Flow Increase (cerebral circulation; 1.0 mg/Kg i.v.): 120%
Vertebral blood flow Duration (cerebral circulation; 1.0 mg/Kg i.v.): 6 min

CCOC(=O)C1=C(C)N(CCOS(=O)(=O)[O-])C(C)=C(C(=O)OCC)C1c1cccc([N+](=O)[O-])c1.[Na+] [D, sodium β-[2,6-dimethyl-3,5-bis(ethoxycarbonyl)-4-(3-nitrophenyl)-1,4-dihydropyridine-1-yl]-ethyl sulfate]
water-solubility (in words) (Water-solubility): excellent water-solubility
MBP [1, 12]: 110
MBP ([1]; 10 mg/kg i.d., change, 1/2 hour post-administration): -11
MBP ([1]; 10 mg/kg i.d., change, 1 hour post-administration): -21
MBP ([1]; 10 mg/kg i.d., change, 2 hour post-administration): -32
MBP ([1]; 10 mg/kg i.d., change, 3 hour post-administration): -43
MBP ([1]; 10 mg/kg i.d., change, 5 hour post-administration): -4.3
MBP ([1]; 10 mg/kg i.d., change, 8 hour post-administration): -40
PO2 in coronary venous blood [2, 13]: 34.7
PO2 in coronary venous blood [2, 14]: 37.2
PO2 in coronary venous blood [2, 15]: 39.7
PO2 in coronary venous blood [2, 16]: 43.3
PO2 in coronary venous blood [2, 17]: 43.2
PO2 in coronary venous blood [2, 18]: 40.0
PO2 in coronary venous blood [2, 12]: 17.8
duration time ([2]; compared with compounds B or C): much longer than those of compounds B or C
absorption in case of peroral administration ([2]; peroral (intra-duodenal), compared with compounds B or C): more easily absorbed than compounds B or C
Percent inhibition against increase of blood pressure caused by norepinephrin [3, 13]: 69%
Percent inhibition against increase of blood pressure caused by norepinephrin [3, 14]: 84%
Percent inhibition against increase of blood pressure caused by norepinephrin [3, 15]: 89%
Percent inhibition against increase of blood pressure caused by norepinephrin [3, 16]: 89%
Percent inhibition against increase of blood pressure caused by norepinephrin [3, 17]: 85%
Percent inhibition against increase of blood pressure caused by norepinephrin [3, 18]: 79%
Coronary Blood Flow Duration ([4]; 0.1 mg/kg i.v.): 20 min
Coronary Blood Flow Increase ([4]; 0.1 mg/kg i.v.): 67 Δ%
Mean Blood Pressure Decrease ([4]; 0.1 mg/kg i.v.): -5 ΔmmHg
Vertebral Blood Flow Increase ([4]; 0.1 mg/kg i.v.): 21 Δ%
Coronary Blood Flow Duration ([4]; 0.3 mg/kg i.v.): 60 min
Coronary Blood Flow Increase ([4]; 0.3 mg/kg i.v.): 72 Δ%
Mean Blood Pressure Decrease ([4]; 0.3 mg/kg i.v.): -12 ΔmmHg
Vertebral Blood Flow Increase ([4]; 0.3 mg/kg i.v.): 75 Δ%
Coronary Blood Flow Duration ([4]; 1 mg/kg i.v.): ≥ 120 min
Coronary Blood Flow Increase ([4]; 1 mg/kg i.v.): 137 Δ%
Mean Blood Pressure Decrease ([4]; 1 mg/kg i.v.): -35 ΔmmHg
Vertebral Blood Flow Increase ([4]; 1 mg/kg i.v.): 169 Δ%
effects on cerebral and coronary blood flow and blood pressure (in words) ([4]; administered intravenously): excellent effects as increasing the cerebral blood flow and coronary blood flow and at the same time showed hypotensive activity
duration of activities (in words) ([4]; administered intravenously, compared with known compounds): prolonged for a long period of time when compared with known compounds
solubility (physchem): ~400 mg/mL

CCOCN1C(C)=C(C(=O)OCC)C(c2cccc([N+](=O)[O-])c2)C(C(=O)OCC)=C1C [A, diethyl 1-ethoxymethyl-2,6-dimethyl-4-(3-nitrophenyl)-1,4-dihydropyridine-3,5-dicarboxylate]
Carotid blood flow Duration (cerebral circulation; 0.1 mg/Kg i.v.): 120 min
Carotid blood flow Increase (cerebral circulation; 0.1 mg/Kg i.v.): 80%
Mean Blood Pressure Decrease (cerebral circulation; 0.1 mg/Kg i.v.): 9%
Regional Cerebral blood flow Duration (cerebral circulation; 0.1 mg/Kg i.v.): 120 min
Regional Cerebral blood flow Increase (cerebral circulation; 0.1 mg/Kg i.v.): 8.6 μV
Vertebral Blood Flow Increase (cerebral circulation; 0.1 mg/Kg i.v.): 120%
Vertebral blood flow Duration (cerebral circulation; 0.1 mg/Kg i.v.): 100 min
MLD (Minimum lethal dose) (mice; i.p.): > 3000 mg/kg
MLD (Minimum lethal dose) (mice; p.o.): > 5000 mg/kg
